In patent US10233186B2, “Inhibitors of activin receptor-like kinase” (BLUEPRINT MEDICINES CORPORATION, priority 2016, dated 2019):

How the values were obtained:
[1] = target: T1, ALK2 R206H (GST-tagged mutant ALK2) (Homo sapiens, UniProt Q04771, R206H); assay: ALK binding assay (LANTHASCREEN TR-FRET competitive binding, displacement of Kinase Tracer 178); conditions: ALK2 R206H, LANTHASCREEN TR-FRET competitive binding; read-out: Binding Assay (IC50)
T1 construct: purchased Carna Bioscience or ThermoFisher 09-148 or PV6232
T1 sequence (Q04771 21-509 R206H): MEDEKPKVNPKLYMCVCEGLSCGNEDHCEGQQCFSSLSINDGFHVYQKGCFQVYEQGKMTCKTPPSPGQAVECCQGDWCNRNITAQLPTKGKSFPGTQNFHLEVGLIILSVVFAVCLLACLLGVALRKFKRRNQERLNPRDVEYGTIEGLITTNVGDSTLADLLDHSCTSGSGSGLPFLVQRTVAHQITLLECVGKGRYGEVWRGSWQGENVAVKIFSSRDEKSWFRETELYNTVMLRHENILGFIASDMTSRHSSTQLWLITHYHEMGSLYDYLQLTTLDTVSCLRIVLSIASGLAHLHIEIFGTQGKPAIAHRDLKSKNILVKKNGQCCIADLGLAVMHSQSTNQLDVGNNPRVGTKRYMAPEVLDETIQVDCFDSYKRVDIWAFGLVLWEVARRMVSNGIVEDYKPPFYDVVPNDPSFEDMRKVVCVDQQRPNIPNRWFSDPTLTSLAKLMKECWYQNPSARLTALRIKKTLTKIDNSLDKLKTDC

[2] = target: T2, human ALK2 R206H (Homo sapiens, UniProt Q04771, R206H); assay: Cell-based ALK2-R206H cell activity assay (Smad1-Ser463/Ser465 phosphorylation by AlphaLISA in HEK293-ALK2-R206H cells); conditions: read-out: Cell Line (Cell Assay IC50)
T2 construct: expressed in transfected cells; host or cells: HEK293 (ATCC CRL1573), lentivirus transduction, blasticidin selection
T2 sequence (Q04771 21-509 R206H): T1 sequence (Q04771 21-509 R206H)
Summary of the method: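 Stable HEK293 cells expressing C-terminally FLAG-tagged human ALK2 R206H (lentiviral, blasticidin-selected) were treated with compounds in 10-point, 3-fold dilutions from 10 μM or 1 μM top, in duplicate. Smad1 Ser463/Ser465 phosphorylation was read by AlphaLISA.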

Molecule `CCOC(=O)N1CCN(c2ccnn3cc(-c4ccc(C5(OC)CCN(C(C)C)CC5)cc4)cc23)CC1` [Compound 643] has an IC50 [1] of less than 10 nM and an IC50 [2] of less than 100 nM.

`CCNC(=O)N1CCN(c2ccnn3cc(-c4ccc(C5(OC)CCN(C(C)C)CC5)cn4)cc23)CC1` [Compound 644] showed an IC50 [1] of less than 10 nM and an IC50 [2] of less than 100 nM.

Work on `CCNC(=O)N1CCN(c2ccnn3cc(-c4ccc([C@]5(OC)CCCN(C(C)C)C5)cn4)cc23)CC1` [Compound 645] yielded an IC50 [1] of less than 10 nM and an IC50 [2] of less than 100 nM.

In the case of `CCNC(=O)N1CCN(c2ccnn3cc(-c4ccc([C@@]5(OC)CCCN(C(C)C)C5)cn4)cc23)CC1` [Compound 646], the IC50 [1] is reported as less than 10 nM and the IC50 [2] is reported as less than 100 nM.

Molecule `CCOC1(c2ccc(-c3cc4c(N5CCN(C(=O)OC6COC6)CC5)ccnn4c3)nc2)CCNCC1` [Compound 647] has an IC50 [1] of less than 10 nM and an IC50 [2] of less than 100 nM.

`CC(C)NC(=O)N1CCN(c2ccnn3cc(-c4ccc(C5(F)CCN(C(C)C)CC5)cc4)cc23)CC1` [Compound 648] was tested, and the IC50 [1] was less than 10 nM and the IC50 [2] was less than 100 nM.

`CC(C)NC(=O)N1CCN(c2ccnn3cc(-c4ccc(C5CCN(C(C)C)CC5)cc4F)cc23)CC1` [Compound 649] showed an IC50 [1] of less than 10 nM and an IC50 [2] of less than 100 nM.

`COC1(c2ccc(-c3cc4c(N5CCN(C(=O)OC6COC6)CC5)ccnn4c3)c(F)c2)CCNCC1` [Compound 650] showed an IC50 [1] of less than 10 nM and an IC50 [2] of less than 100 nM.

`CCOC(=O)N1CCN(c2ccnn3cc(-c4ccc(C5CCN(C(C)C)CC5)cc4Cl)cc23)CC1` [Compound 651] showed an IC50 [1] of less than 10 nM and an IC50 [2] of less than 100 nM.

`CC(C)N1CCC(c2ccc(-c3cc4c(N5CCN(C(=O)OCC(F)F)CC5)ccnn4c3)cc2)CC1` [Compound 652] gave an IC50 [1] of less than 10 nM and an IC50 [2] of less than 100 nM.

In the case of `CC(C)N1CCC[C@@H](c2ccc(-c3cc4c(N5CCN(C(=O)[C@H]6C[C@H](C#N)C6)CC5)ccnn4c3)nc2)C1` [Compound 653], the IC50 [1] is reported as less than 10 nM and the IC50 [2] is reported as less than 100 nM.

`CC(C)N1CCC[C@H](c2ccc(-c3cc4c(N5CCN(C(=O)[C@H]6C[C@H](C#N)C6)CC5)ccnn4c3)nc2)C1` [Compound 654] was tested, and the IC50 [1] was less than 10 nM and the IC50 [2] was less than 100 nM.

Molecule `COC1(c2ccc(-c3cc4c(N5CCN(C(=O)C6CC(C#N)C6)CC5)ccnn4c3)cc2)CN(C(C)C)C1` (stereo not shown) [Compound 655] has an IC50 [1] of less than 10 nM and an IC50 [2] of less than 100 nM.

With `CCO[C@@]1(c2ccc(-c3cc4c(N5CCN(C(=O)C6CC6)CC5)ccnn4c3)cc2)CCCN(C(C)C)C1` [Compound 656] the IC50 [1] was less than 10 nM and the IC50 [2] was less than 100 nM.

For `CCO[C@]1(c2ccc(-c3cc4c(N5CCN(C(=O)C6CC6)CC5)ccnn4c3)cc2)CCCN(C(C)C)C1` [Compound 657], the IC50 [1] was less than 10 nM and the IC50 [2] was less than 100 nM.

`CCOC1(c2ccc(-c3cc4c(N5CCN(C(=O)C6CC6)CC5)ccnn4c3)cc2)CCN(C(C)C)CC1` [Compound 658] showed an IC50 [1] of less than 10 nM and an IC50 [2] of less than 100 nM.

`COC1(c2ccc(-c3cc4c(N5CCN(C(=O)C6CC6)[C@H](C)C5)ccnn4c3)cc2)CCN(C(C)C)CC1` [Compound 659] was tested, and the IC50 [1] was less than 10 nM and the IC50 [2] was less than 100 nM.

`COC1(c2ccc(-c3cc4c(N5CCN(C(=O)C6CC6)CC5)ccnn4c3)nc2)CCN(C2COC2)CC1` [Compound 660] showed an IC50 [1] of less than 10 nM and an IC50 [2] of less than 100 nM.

`CC(C)N1CCC(c2ccc(-c3cc4c(N5CCN(C(=O)NCC6COC6)CC5)ccnn4c3)cc2)CC1` [Compound 661] was tested, and the IC50 [1] was less than 10 nM and the IC50 [2] was 100 to 500 nM.

`CCOC1(c2ccc(-c3cc4c(N5CCN(C(=O)C6CC6)CC5)ccnn4c3)nc2)CCN(C(C)C)CC1` [Compound 662] gave an IC50 [1] of less than 10 nM and an IC50 [2] of less than 100 nM.

`CC(C)[C@@H](C)NC(=O)N1CCN(c2ccnn3cc(-c4ccc(C5CCN(C(C)C)CC5)cc4)cc23)CC1` [Compound 663] gave an IC50 [1] of less than 10 nM and an IC50 [2] of less than 100 nM.

`CC(C)N1CCC(c2ccc(-c3cc4c(N5CCN(C(=O)NCC(C)(C)C)CC5)ccnn4c3)cc2)CC1` [Compound 664] showed an IC50 [1] of less than 10 nM and an IC50 [2] of 100 to 500 nM.

With `CC(C)N1CCC(c2ccc(-c3cc4c(N5CCN(C(=O)OCC6COC6)CC5)ccnn4c3)cc2)CC1` [Compound 665] the IC50 [1] was less than 10 nM and the IC50 [2] was less than 100 nM.

In the case of `CC(C)N1CCC(c2ccc(-c3cc4c(N5CCN(C(=O)O[C@@H]6CCOC6)CC5)ccnn4c3)cc2)CC1` [Compound 666], the IC50 [1] is reported as less than 10 nM and the IC50 [2] is reported as less than 100 nM.

`CC(C)N1CCC(c2ccc(-c3cc4c(N5CCN(C(=O)O[C@H]6CCOC6)CC5)ccnn4c3)cc2)CC1` [Compound 667] was tested, and the IC50 [1] was less than 10 nM and the IC50 [2] was less than 100 nM.

`CC(C)N1CCC(C)(c2ccc(-c3cc4c(N5CCN(C(=O)OC6COC6)CC5)ccnn4c3)cc2)CC1` [Compound 668] gave an IC50 [1] of less than 10 nM and an IC50 [2] of 100 to 500 nM.
